Data on 22 molecules can be found in patent publication US20090253669A1, “Substituted Sulfonamide Compounds” (GRUENENTHAL GmbH, priority 2008, published 2009).

For orientation: inhibition means the relative decrease from the control value, in per cent.

Assay [1] addresses T1, B1R receptor of the rat (rB1R) (Rattus norvegicus, UniProt P97583).
T1 construct: host or cells: CHO K1 cells
T1 sequence (P97583 1-337): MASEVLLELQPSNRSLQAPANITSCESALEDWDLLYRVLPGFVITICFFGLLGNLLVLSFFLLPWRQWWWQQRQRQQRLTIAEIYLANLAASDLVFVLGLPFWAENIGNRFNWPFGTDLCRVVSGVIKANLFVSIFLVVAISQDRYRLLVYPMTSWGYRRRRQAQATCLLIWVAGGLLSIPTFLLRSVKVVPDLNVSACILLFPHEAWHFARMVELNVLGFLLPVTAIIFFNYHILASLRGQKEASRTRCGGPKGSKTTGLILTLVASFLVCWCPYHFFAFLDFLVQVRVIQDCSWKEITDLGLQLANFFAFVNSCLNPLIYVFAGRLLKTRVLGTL
The experiment in a line: FLIPR Ca2+ assay on rB1R-transfected CHO K1 cells, antagonistic action. The format is cell-based. The note with it: CHO-K1, 10 μM test substance; agonist Des-Arg9-bradykinin 100 nM; % of maximum achievable inhibition; read-out: rB1R [10 μM] % inhibition.

Assay [2] has as its target T2, human B1R receptor (hB1R) (Homo sapiens, UniProt P46663).
T2 construct: host or cells: CHO K1 cells
T2 sequence (P46663 1-353): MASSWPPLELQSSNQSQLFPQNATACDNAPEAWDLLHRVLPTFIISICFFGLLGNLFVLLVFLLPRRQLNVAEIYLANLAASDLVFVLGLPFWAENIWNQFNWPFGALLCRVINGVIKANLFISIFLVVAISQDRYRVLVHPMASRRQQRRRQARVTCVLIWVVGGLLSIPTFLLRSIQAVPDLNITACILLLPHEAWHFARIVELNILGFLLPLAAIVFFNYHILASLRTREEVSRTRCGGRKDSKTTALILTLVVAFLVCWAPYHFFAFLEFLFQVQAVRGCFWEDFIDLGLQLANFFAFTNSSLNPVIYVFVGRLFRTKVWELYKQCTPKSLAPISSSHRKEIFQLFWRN
The experiment in a line: FLIPR Ca2+ assay on hB1R-transfected CHO K1 cells, antagonistic action. The format is cell-based. To be noted: CHO-K1, 10 μM test substance; agonist Lys-Des-Arg9-bradykinin 0.5 nM; % of maximum achievable inhibition; read-out: hB1R [10 μM] % inhibition.

Each structure is given as a SMILES string.

Turning to `CN(C)C1(CCc2ccccc2)CCC(NC(=O)CC2c3ccccc3CCN2S(=O)(=O)c2ccc(Cl)c(Cl)c2)CC1` (stereo not shown) [Compound 1, 2-(2-(3,4-dichlorophenylsulfonyl)-1,2,3,4-tetrahydroisoquinolin-1-yl)-N-(4-(dimethylamino)-4-phenethylcyclohexyl)acetamide], the inhibition at 10 µM came to 105% in assay [1] and 96% in assay [2]. In the same order, the values of `COc1cc(C)c(S(=O)(=O)N2CCC(OCC(=O)NC3CCC(CCc4ccccc4)(N(C)C)CC3)C2)c(C)c1` (stereo not shown) [Compound 5, N-(4-(dimethylamino)-4-phenethylcyclohexyl)-2-(1-(4-methoxy-2,6-dimethylphenylsulfonyl)pyrrolidin-3-yloxy)acetamide] are 100% and 104%.

For `COc1cc(C)c(S(=O)(=O)N(C)CCOCC(=O)NC2CCC(c3cccc(F)c3)(N(C)C)CC2)c(C)c1` (stereo not shown) [Compound 6, N-(4-(dimethylamino)-4-(3-fluorophenyl)cyclohexyl)-2-(2-(4-methoxy-N,2,6-trimethylphenylsulfonamido)ethoxy)acetamide], the inhibition at 10 µM in assay [1] and in assay [2] was 100% in each case.

Consider `COc1cc(C)c(S(=O)(=O)N(C)CCOCC(=O)NC2CCC(CCc3ccccc3)(N(C)C)CC2)c(C)c1` (stereo not shown) [Compound 7, N-(4-(dimethylamino)-4-phenethylcyclohexyl)-2-(2-(4-methoxy-N,2,6-trimethylphenylsulfonamido)ethoxy)acetamide], for which the inhibition at 10 µM in assay [1] is 100%; in assay [2], 103%. In the same order, the values of `COc1cc(C)c(S(=O)(=O)N(C)CCOCC(=O)NC2CCC(Cc3ccc(F)cc3)(N(C)C)CC2)c(C)c1` (stereo not shown) [Compound 9, N-(4-(dimethylamino)-4-(4-fluorobenzyl)cyclohexyl)-2-(2-(4-methoxy-N,2,6-trimethylphenylsulfonamido)ethoxy)acetamide] are 95% and 104%. The like results for `COc1cc(C)c(S(=O)(=O)N(C)CCOCC(=O)NC2CCC(Cc3ccccc3C)(N(C)C)CC2)c(C)c1` (stereo not shown) [Compound 10, N-(4-(dimethylamino)-4-(2-methylbenzyl)cyclohexyl)-2-(2-(4-methoxy-N,2,6-trimethylphenylsulfonamido)ethoxy)acetamide] were, in that order, 95% and 103%.

For the molecule `COc1cc(C)c(S(=O)(=O)N(C)CCOCC(=O)NC2CCC(c3ccccc3)(N3CCCCC3)CC2)c(C)c1` (stereo not shown) [Compound 11, 2-(2-(4-methoxy-N,2,6-trimethylphenylsulfonamido)ethoxy)-N-(4-phenyl-4-(piperidin-1-yl)cyclohexyl)acetamide], the inhibition at 10 µM is 90% in assay [1] and 100% in assay [2]. In the case of `Cc1ccccc1CC1(N(C)C)CCC(NC(=O)CC2c3ccccc3CCN2S(=O)(=O)c2ccc(Cl)c(Cl)c2)CC1` (stereo not shown) [Compound 12, 2-(2-(3,4-dichlorophenylsulfonyl)-1,2,3,4-tetrahydroisoquinolin-1-yl)-N-(4-(dimethylamino)-4-(2-methylbenzyl)cyclohexyl)acetamide], the inhibition at 10 µM in assay [1] amounted to 88%; in assay [2], 77%. Consider `COc1cc(C)c(S(=O)(=O)N2CCC(OCC(=O)NC3CCC(Cc4ccccc4C)(N(C)C)CC3)C2)c(C)c1` (stereo not shown) [Compound 14, N-(4-(dimethylamino)-4-(2-methylbenzyl)cyclohexyl)-2-(1-(4-methoxy-2,6-dimethylphenylsulfonyl)pyrrolidin-3-yloxy)acetamide], for which the inhibition at 10 µM in assay [1] was 82%; in assay [2] it was 89%. In the same order, the values of `O=C(CC1c2ccccc2CCN1S(=O)(=O)c1ccc(Cl)c(Cl)c1)NC1CCC(Cc2ccccc2)(N2CCCCC2)CC1` (stereo not shown) [Compound 15, N-(4-benzyl-4-(piperidin-1-yl)cyclohexyl)-2-(2-(3,4-dichlorophenylsulfonyl)-1,2,3,4-tetrahydroisoquinolin-1-yl)acetamide] are 82% and 55%. The like results for `O=C(CC1c2ccccc2CCN1S(=O)(=O)c1ccc(Cl)c(Cl)c1)NC1CCC(Cc2ccccc2)(N2CCCCCC2)CC1` (stereo not shown) [Compound 16, N-(4-(azepan-1-yl)-4-benzylcyclohexyl)-2-(2-(3,4-dichlorophenylsulfonyl)-1,2,3,4-tetrahydroisoquinolin-1-yl)acetamide] were, in that order, 80% and 91%. In the same order, the values of `COc1cc(C)c(S(=O)(=O)N(C)CCOCC(=O)NC2CCC(Cc3ccccc3)(N3CCCCC3)CC2)c(C)c1` (stereo not shown) [Compound 17, N-(4-benzyl-4-(piperidin-1-yl)cyclohexyl)-2-(2-(4-methoxy-N,2,6-trimethylphenylsulfonamido)ethoxy)acetamide] are 75% and 86%. As for `COc1cc(C)c(S(=O)(=O)N2CCC(OCC(=O)NC3CCC(Cc4ccccc4)(N4CCCCC4)CC3)C2)c(C)c1` (stereo not shown) [Compound 18, N-(4-benzyl-4-(piperidin-1-yl)cyclohexyl)-2-(1-(4-methoxy-2,6-dimethylphenylsulfonyl)pyrrolidin-3-yloxy)acetamide], the inhibition at 10 µM in assay [1] was 74%; in assay [2] it was 68%. The like results for `COc1ccc(S(=O)(=O)N2CCCCC2CCOCC(=O)NC2CCC(c3ccccc3)(N(C)C)CC2)cc1` (stereo not shown) [Compound 19, N-(4-(dimethylamino)-4-phenylcyclohexyl)-2-(2-(1-(4-methoxyphenylsulfonyl)piperidin-2-yl)ethoxy)acetamide] were, in that order, 73% and 51%.

For the molecule `COc1cc(C)c(S(=O)(=O)N(C)CCOCC(=O)NC2CCC(Cc3ccccc3)(N3CCCCCC3)CC2)c(C)c1` (stereo not shown) [Compound 20, N-(4-(azepan-1-yl)-4-benzylcyclohexyl)-2-(2-(4-methoxy-N,2,6-trimethylphenylsulfonamido)ethoxy)acetamide], the inhibition at 10 µM came out at 69% in assay [1] and 91% in assay [2].

Consider `CN(C)C1(c2cccc(F)c2)CCC(NC(=O)COCCN(C)S(=O)(=O)c2ccc(Cl)cc2Cl)CC1` (stereo not shown) [Compound 21, 2-(2-(2,4-dichloro-N-methylphenylsulfonamido)ethoxy)-N-(4-(dimethylamino)-4-(3-fluorophenyl)cyclohexyl)acetamide], for which the figures for the inhibition at 10 µM in assay [1] and in assay [2] were 67% and 29%, respectively. Regarding `COc1cc(C)c(S(=O)(=O)N(C)CCOCC(=O)NC2CCC(CCc3ccccc3)(N(C)C)CC2)c(C)c1C` (stereo not shown) [Compound 24, N-(4-(dimethylamino)-4-phenethylcyclohexyl)-2-(2-(4-methoxy-N,2,3,6-tetramethylphenylsulfonamido)ethoxy)acetamide], the inhibition at 10 µM in assay [1] is 65%; in assay [2], 97%. The like results for `CN(C)C1(c2ccccc2)CCC(NC(=O)CC2c3ccccc3CCN2S(=O)(=O)c2ccc(Cl)c(Cl)c2)CC1` (stereo not shown) [Compound 26, 2-(2-(3,4-dichlorophenylsulfonyl)-1,2,3,4-tetrahydroisoquinolin-1-yl)-N-(4-(dimethylamino)-4-phenylcyclohexyl)acetamide] were, in that order, 56% and 84%. With `COc1cc(C)c(S(=O)(=O)N(CCOCC(=O)N2CCC(c3cccc(F)c3)(N3CCN(C)CC3)CC2)Cc2ccccc2)c(C)c1` [Compound 218, N-Benzyl-N-(2-(2-(4-(3-fluorophenyl)-4-(4-methylpiperazin-1-yl)piperidin-1-yl)-2-oxoethoxy)ethyl)-4-methoxy-2,6-dimethylbenzenesulfonamide], the inhibition at 10 µM in assay [1] came to 101%. Same read-out and setting: then `COc1cc(C)c(S(=O)(=O)N(CCOCC(=O)N2CCC(c3cccc(F)c3)(N3CCN(C)CC3)CC2)c2ccccc2)c(C)c1` [Compound 219, N-(2-(2-(4-(3-Fluorophenyl)-4-(4-methylpiperazin-1-yl)piperidin-1-yl)-2-oxoethoxy)ethyl)-4-methoxy-2,6-dimethyl-N-phenylbenzenesulfonamide], with 61%. With `COc1cc(C)c(S(=O)(=O)N2c3ccccc3CCC2COCC(=O)N2CCC(c3cccc(F)c3)(N3CCN(C)CC3)CC2)c(C)c1` (stereo not shown) [Compound 220, 1-(4-(3-Fluorophenyl)-4-(4-methylpiperazin-1-yl)piperidin-1-yl)-2-((1-(4-methoxy-2,6-dimethylphenylsulfonyl)-1,2,3,4-tetrahydroquinolin-2-yl)methoxy)ethanone], the inhibition at 10 µM in assay [1] is 97%. On the same count and under the same terms, then `COc1cc(C)c(S(=O)(=O)N(C)CCOCC(=O)N2CCC(c3cccc(F)c3)(N3CCN(C)CC3)CC2)c(C)c1C` [Compound 224, N-(2-(2-(4-(3-Fluorophenyl)-4-(4-methylpiperazin-1-yl)piperidin-1-yl)-2-oxoethoxy)ethyl)-4-methoxy-N,2,3,6-tetramethylbenzenesulfonamide], with 100%.
